We go through 25 compounds from patent US10550105B2 (Ribon Therapeutics Inc., priority 2018, dated 2020).

PARP7, sequence (Q7Z3E1 whole entry): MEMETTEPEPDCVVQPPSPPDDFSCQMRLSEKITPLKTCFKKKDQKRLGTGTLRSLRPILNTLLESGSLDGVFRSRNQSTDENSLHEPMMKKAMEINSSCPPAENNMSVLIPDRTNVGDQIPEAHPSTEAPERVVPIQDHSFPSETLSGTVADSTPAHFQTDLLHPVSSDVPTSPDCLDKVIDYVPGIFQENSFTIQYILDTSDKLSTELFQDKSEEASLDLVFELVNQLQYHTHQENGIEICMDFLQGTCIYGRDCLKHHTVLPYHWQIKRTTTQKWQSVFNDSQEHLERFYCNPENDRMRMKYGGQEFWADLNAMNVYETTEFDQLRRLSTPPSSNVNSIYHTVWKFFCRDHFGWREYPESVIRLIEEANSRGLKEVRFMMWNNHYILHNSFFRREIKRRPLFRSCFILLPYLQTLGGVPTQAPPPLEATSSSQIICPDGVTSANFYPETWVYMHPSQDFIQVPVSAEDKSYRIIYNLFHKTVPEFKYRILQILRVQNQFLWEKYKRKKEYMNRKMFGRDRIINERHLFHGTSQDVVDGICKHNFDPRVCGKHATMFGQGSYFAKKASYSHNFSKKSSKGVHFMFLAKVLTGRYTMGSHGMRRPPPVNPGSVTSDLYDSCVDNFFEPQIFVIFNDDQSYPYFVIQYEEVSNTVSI

The test addresses PARP7 (Homo sapiens (Human), UniProt Q7Z3E1). Briefly: Enzymatic assay for inhibition of PARP7: TR-FRET displacement of biotinylated Probe A from the TIPARP active site. The format is binding. As to conditions: Table A-1. Summed up:
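Read-out: 665/615 nm emission ratio (ex 320 nm, 90 μs delay) indexing bound TIPARP–Probe A. Final incubation 30 min, 25° C; compounds in dose response. Curve fit of % inhibition vs concentration; Hill slope floating or fixed at 1 (3-parameter).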
Compound `O=c1[nH]ncc(N2Cc3ccc(OCCN4CCOCC4)nc3C2)c1C(F)(F)F` [Example 316, 5-(2-(2-Morpholinoethoxy)-5,7-dihydro-6H-pyrrolo[3,4-b]pyridin-6-yl)-4-(trifluoromethyl)pyridazin-3(2H)-one] gave an IC50 of 0.1 to 1 µM. The compound `NCCOc1ccc2c(n1)CN(c1cn[nH]c(=O)c1C(F)(F)F)C2` [Example 317, 5-(2-(2-Aminoethoxy)-5,7-dihydro-6H-pyrrolo[3,4-b]pyridin-6-yl)-4-(trifluoromethyl)pyridazin-3(2H)-one formic acid] gave an IC50 of 0.1 to 1 µM.

Take `CNCCOc1ccc2c(n1)CN(c1cn[nH]c(=O)c1C(F)(F)F)C2` [Example 318, 5-(2-(2-(Methylamino)ethoxy)-5,7-dihydro-6H-pyrrolo[3,4-b]pyridin-6-yl)-4-(trifluoromethyl)pyridazin-3(2H)-one]: the IC50 fell in the range of 0.1 to 1 µM.

For the compound `CN(C)CCOc1ccc2c(n1)CN(c1cn[nH]c(=O)c1C(F)(F)F)C2` [Example 319, 5-(2-(2-(Dimethylamino)ethoxy)-5,7-dihydro-6H-pyrrolo[3,4-b]pyridin-6-yl)-4-(trifluoromethyl)pyridazin-3(2H)-one], the IC50 was in the range of 0.1 to 1 µM.

Turning to `Cc1ccc2c(n1)CN(c1cn[nH]c(=O)c1C(F)(F)F)C2` [Example 320, 5-(2-Methyl-5,7-dihydro-6H-pyrrolo[3,4-b]pyridin-6-yl)-4-(trifluoromethyl)pyridazin-3(2H)-one], the IC50 was < 0.1 µM. Turning to `O=c1[nH]ncc(N2Cc3ccc(OCc4ccncc4)nc3C2)c1C(F)(F)F` [Example 321, 5-(2-(Pyridin-4-ylmethoxy)-5,7-dihydro-6H-pyrrolo[3,4-b]pyridin-6-yl)-4-(trifluoromethyl)pyridazin-3(2H)-one], the IC50 is < 0.1 µM.

For `NCc1ccc2c(c1)CN(c1cn[nH]c(=O)c1C(F)(F)F)C2` [Example 322, 5-(5-(Aminomethyl)isoindolin-2-yl)-4-(trifluoromethyl)pyridazin-3(2H)-one], the IC50 lay within 0.1 to 1 µM. Consider `O=c1[nH]ncc(N2Cc3cc(OCCO)cc(F)c3C2)c1C(F)(F)F` [Example 323, 5-(4-Fluoro-6-(2-hydroxyethoxy)isoindolin-2-yl)-4-(trifluoromethyl)pyridazin-3(2H)-one], for which the IC50 is < 0.1 µM. To `O=c1[nH]ncc(N2Cc3ccc(OC4CCNCC4)nc3C2)c1C(F)(F)F` [Example 324, 5-(2-(Piperidin-4-yloxy)-5,7-dihydro-6H-pyrrolo[3,4-b]pyridin-6-yl)-4-(trifluoromethyl)pyridazin-3(2H)-one] belongs 0.1 to 1 µM. Then `O=c1[nH]ncc(N2Cc3cc(OCCN4CCOCC4)cnc3C2)c1C(F)(F)F` [Example 325, 5-(3-(2-Morpholinoethoxy)-5,7-dihydro-6H-pyrrolo[3,4-b]pyridin-6-yl)-4-(trifluoromethyl)pyridazin-3(2H)-one], with 0.1 to 1 µM; and `COc1cnc2c(c1)CN(c1cn[nH]c(=O)c1C(F)(F)F)C2` [Example 326, 5-(3-Methoxy-5,7-dihydro-6H-pyrrolo[3,4-b]pyridin-6-yl)-4-(trifluoromethyl)pyridazin-3(2H)-one], with < 0.1 µM. To `NCc1cc2c(cc1F)CN(c1cn[nH]c(=O)c1C(F)(F)F)C2` [Example 327, 5-(5-(Aminomethyl)-6-fluoroisoindolin-2-yl)-4-(trifluoromethyl)pyridazin-3(2H)-one] belongs 0.1 to 1 µM.

For the compound `CN(Cc1ccncc1)Cc1cccc2c1CN(c1cn[nH]c(=O)c1C(F)(F)F)C2` [Example 328, 5-(4-((Methyl(pyridin-4-ylmethyl)amino)methyl)isoindolin-2-yl)-4-(trifluoromethyl)pyridazin-3(2H)-one], the IC50 was < 0.1 µM. To `O=c1[nH]ncc(N2Cc3cccc(CNCc4ccncc4)c3C2)c1C(F)(F)F` [Example 329, 5-(4-(((Pyridin-4-ylmethyl)amino)methyl)isoindolin-2-yl)-4-(trifluoromethyl)pyridazin-3(2H)-one] belongs < 0.1 µM; to `N#CCC1c2ccccc2CN1c1cn[nH]c(=O)c1C(F)(F)F` (stereo not shown) [Example 330, 2-(2-(6-Oxo-5-(trifluoromethyl)-1,6-dihydropyridazin-4-yl)isoindolin-1-yl)acetonitrile], ≥ 1 µM; to `CN(C)CCOc1cc(F)c2c(c1)CN(c1cn[nH]c(=O)c1C(F)(F)F)C2` [Example 331, 5-(6-(2-(Dimethylamino)ethoxy)-4-fluoroisoindolin-2-yl)-4-(trifluoromethyl)pyridazin-3(2H)-one], < 0.1 µM. As to `COc1ccc2c(c1)C(C)N(c1cn[nH]c(=O)c1C(F)(F)F)C2` (stereo not shown) [Example 332, 5-(6-Methoxy-1-methylisoindolin-2-yl)-4-(trifluoromethyl)pyridazin-3(2H)-one], the half-maximal inhibitory concentration (IC50) was 0.1 to 1 µM. Turning to `CC(=O)N1CCC(Oc2ccc3c(n2)CN(c2cn[nH]c(=O)c2C(F)(F)F)C3)CC1` [Example 333, 5-(2-((1-Acetylpiperidin-4-yl)oxy)-5,7-dihydro-6H-pyrrolo[3,4-b]pyridin-6-yl)-4-(trifluoromethyl)pyridazin-3(2H)-one], the IC50 is < 0.1 µM. Turning to `NCCOc1cnc2c(c1)CN(c1cn[nH]c(=O)c1C(F)(F)F)C2` [Example 334, 5-(3-(2-Aminoethoxy)-5,7-dihydro-6H-pyrrolo[3,4-b]pyridin-6-yl)-4-(trifluoromethyl)pyridazin-3(2H)-one], the IC50 is 0.1 to 1 µM. Consider `CN(C)CCOc1cnc2c(c1)CN(c1cn[nH]c(=O)c1C(F)(F)F)C2` [Example 335, 5-(3-(2-(Dimethylamino)ethoxy)-5,7-dihydro-6H-pyrrolo[3,4-b]pyridin-6-yl)-4-(trifluoromethyl)pyridazin-3(2H)-one], for which the IC50 lay in the range of 0.1 to 1 µM. To `O=c1[nH]ncc(N2Cc3cc(OCc4cccnc4)cnc3C2)c1C(F)(F)F` [Example 336, 5-(3-(Pyridin-3-ylmethoxy)-5,7-dihydro-6H-pyrrolo[3,4-b]pyridin-6-yl)-4-(trifluoromethyl)pyridazin-3(2H)-one] belongs < 0.1 µM; to `COc1ccnc2c1CN(c1cn[nH]c(=O)c1C(F)(F)F)C2` [Example 337, 5-(4-Methoxy-5,7-dihydro-6H-pyrrolo[3,4-b]pyridin-6-yl)-4-(trifluoromethyl)pyridazin-3(2H)-one], < 0.1 µM; to `CC(=O)N1CCC(Oc2ccnc3c2CN(c2cn[nH]c(=O)c2C(F)(F)F)C3)CC1` [Example 338, 5-(4-((1-Acetylpiperidin-4-yl)oxy)-5,7-dihydro-6H-pyrrolo[3,4-b]pyridin-6-yl)-4-(trifluoromethyl)pyridazin-3(2H)-one], < 0.1 µM. To `O=c1[nH]ncc(N2Cc3cccc(CNc4ccncc4)c3C2)c1C(F)(F)F` [Example 339, 5-(4-((Pyridin-4-ylamino)methyl)isoindolin-2-yl)-4-(trifluoromethyl)pyridazin-3(2H)-one] belongs < 0.1 µM; to `N#Cc1ccc(N2CCN(C(=O)c3cccc(OCC4c5ccccc5CN4c4cn[nH]c(=O)c4C(F)(F)F)c3)CC2)nc1` (stereo not shown) [Example 340, 6-(4-(3-((2-(6-Oxo-5-(trifluoromethyl)-1,6-dihydropyridazin-4-yl)isoindolin-1-yl)methoxy)benzoyl)piperazin-1-yl)nicotinonitrile], < 0.1 µM.
